Test results from patent US20240207414A1, “DISULFIDE-BASED PRODRUG COMPOUND” (Ludwig-Maximilians-Universitat Munchen, priority 2021, published 2024).

What was measured:
TrxR1(U498C) = target: T1, TrxR1(U498C) (Homo sapiens, UniProt Q16881); assay: Enzymatic activation assay: TrxR1 Secys498Cys mutant; type: biochemical; conditions: NADPH; for cargo release / processing by TrxR1(U498C)/Trx1: TrxR1(U498C) with Trx1
T1 sequence (Q16881 with tags, fused parts or gaps isoform Q16881-5): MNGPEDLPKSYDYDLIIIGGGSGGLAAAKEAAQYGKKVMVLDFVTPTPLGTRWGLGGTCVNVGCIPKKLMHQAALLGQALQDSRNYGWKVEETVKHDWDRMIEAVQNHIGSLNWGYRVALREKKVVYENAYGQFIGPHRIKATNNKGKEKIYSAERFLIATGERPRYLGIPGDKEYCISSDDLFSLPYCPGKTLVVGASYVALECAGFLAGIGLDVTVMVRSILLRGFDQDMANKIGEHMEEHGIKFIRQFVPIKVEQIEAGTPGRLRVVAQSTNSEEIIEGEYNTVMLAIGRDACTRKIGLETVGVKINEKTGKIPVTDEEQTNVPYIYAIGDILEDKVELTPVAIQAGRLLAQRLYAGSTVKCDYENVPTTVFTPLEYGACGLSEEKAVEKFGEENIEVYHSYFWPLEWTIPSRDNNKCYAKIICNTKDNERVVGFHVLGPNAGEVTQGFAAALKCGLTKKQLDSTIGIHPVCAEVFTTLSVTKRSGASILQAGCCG
Excerpt: (§1) This assay (see FIG. 2) examined the resistance of disulfide-based reduction-triggered compounds to the major cellular enzymatic systems that maintain redox homeostasis and are capable of reducing disulfides, evaluated in a cell-free assay, to see if these compounds can be useful for selective enzyme-triggered release.
(§2) Assay conditions: A black 96-well plate with black bottom was charged with solutions of fluorophore-releasing reduction-triggered probes that are compounds of the invention (P1, P2) or that are not compounds of the invention and reveal the performance of prior art systems (X19) (50 μL; 40 μM in aq. TE buffer (pH 7.4) and 4 μL DMSO). Separately, master mixes (30 μL in aq. TE buffer (pH 7.4)) containing mixtures of the proteins human recombinant thioredoxin 1 (Trx1, 0.166-16.66 μM) or thioredoxin 2 (Trx2, 3.3 μM), or human recombinant glutaredoxin 1 (“Grx1”, 3.3 μM) or glutaredoxin 2 (Grx2, 3.3 μM) and/or oxidoreductases human recombinant thioredoxin reductase 1 (TrxR1, 0.07 μM), the thioredoxin reductase Secys498Cys mutant (TrxR1-U498C, 0.07 μM), thioredoxin reductase 2 (TrxR2, 0.07 μM) or human recombinant glutathione reductase (GR, 0.07 μM), and/or GSH (3.3 μM) were prepared. Note that TrxR1 (U498C) has decreased reducing power compared to TrxR1 due to the mutation of the key vicinal selenothiol/thiol into a vicinal dithiol, but it still reduces Trx1. […]
(§3) Data Representation: (F(t)-F^NADPH(t)) is the fluorescence intensity of the test solution at time t, from which is subtracted a background fluorescence level also at time t from a solution with NADPH (which itself is fluorescent, and is present in 10-fold higher concentration than the probe) and with the same protein mixture but without the probe. F^max(t) is the maximum possible fluorescence intensity value at time t, determined by incubation with TCEP (100 μM)) similarly as for the chemical reductant assay. (F(t)−F^NADPH(t))/F^max(t) thus gives the timecourse of fluorescence signal, as a fraction of the maximum possible fluorescence signal. […]

GR/GSH = target: T2, GR/GSH (Homo sapiens, UniProt P00390); assay: Enzymatic activation assay: GR/GSH; type: biochemical; conditions: NADPH/GR/GSH
T2 sequence (P00390 44-522): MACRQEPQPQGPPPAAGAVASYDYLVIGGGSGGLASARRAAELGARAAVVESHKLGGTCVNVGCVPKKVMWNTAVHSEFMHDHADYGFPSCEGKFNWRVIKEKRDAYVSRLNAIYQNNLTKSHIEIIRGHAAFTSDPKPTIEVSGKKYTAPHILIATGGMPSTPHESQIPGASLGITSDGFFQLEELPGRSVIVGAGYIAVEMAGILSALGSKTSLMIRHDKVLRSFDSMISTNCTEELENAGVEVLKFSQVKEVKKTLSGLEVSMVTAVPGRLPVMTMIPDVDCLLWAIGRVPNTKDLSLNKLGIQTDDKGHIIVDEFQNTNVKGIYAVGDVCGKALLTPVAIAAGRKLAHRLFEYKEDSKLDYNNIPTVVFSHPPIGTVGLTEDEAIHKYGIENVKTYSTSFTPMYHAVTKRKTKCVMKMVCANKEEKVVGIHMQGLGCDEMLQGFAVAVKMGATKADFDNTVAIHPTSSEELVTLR
Excerpt: as §1, §2, §3

[1] = target: T3, GR/GSH/Grx (glutaredoxin 1, Grx1) (Homo sapiens, UniProt P35754); assay: Enzymatic activation assay: GR/GSH/Grx1; type: biochemical; conditions: full mixture NADPH/GR/GSH/Grx1
T3 sequence (P35754 1-106): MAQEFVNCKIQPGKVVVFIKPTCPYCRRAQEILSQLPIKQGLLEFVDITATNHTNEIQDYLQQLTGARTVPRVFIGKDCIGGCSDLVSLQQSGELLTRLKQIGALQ
Excerpt: as §1, §2, §3

HeLa, A549 and MEF cells = assay: Cellular reduction assay (FIG. 3); type: cell-based, human, mouse; conditions: 100 μM, 1% vol DMSO, cells under ordinary conditions
Protocol: Assay Conditions: Cells were cultured under standard conditions (Gao, L. et al. Cell Chemical Biology 2021, 28, 1-14. https://doi.org/10.1016/j.chembiol.2020.11.007), left to adhere for 24 h, then compounds were added to 100 μM with 1% vol DMSO. Fluorescence timecourse measurements were acquired as in the chemoreductant assay, with all conditions in triplicates.
Data Representation: F(t)-F(0) is the fluorescence intensity signal increase as compared to time zero signal (fluorescence intensity immediately following compound addition, before probe activation can occur), in arbitrary units although with the same detection settings for all probes releasing the same cargo. This corresponds to reduction-triggered cargo release. “ctrf” indicates cells not treated with probes, as a negative control.

Compound	cargo release / processing by TrxR1(U498C)/Trx1 (TrxR1(U498C))	cargo release / processing by GR/GSH mixture (GR/GSH)	cargo release / processing by GR/GSH/Grx1 [1]	cargo release inside cells (fluorescence signal increase over time) (HeLa, A549 and MEF cells)	cargo release / degradation by TrxR1(U498C) (TrxR1(U498C); TrxR1(U498C))
O=C(Oc1ccc(Cl)cc1-c1nc2ccc(Cl)cc2c(=O)[nH]1)N1CCC[C@@H]2CSSC[C@H]21 (racemic) [Compound P1, 4-chloro-2-(6-chloro-4-oxo-3,4-dihydroquinazolin-2-yl)phenyl-(trans)-hexahydro-[1,2]dithiino[4,5-b]pyridine-1(2H)-carboxylate]	not processed	resist	only processed by high levels of Grx1 and Grx2	do not release cargo inside cells under ordinary conditions	–
4-chloro-2-(6-chloro-4-oxo-3,4-dihydroquinazolin-2-yl)phenyl methyl(2-((2-(methyl amino)ethyl)disulfaneyl)ethyl)carbamate [Compound X19, reference compound]	–	rapidly degraded	enhanced reaction kinetics	substantially release cargo inside cells cultured under ordinary conditions	rapidly degraded
O=C(Oc1ccc(Cl)cc1-c1nc2ccc(Cl)cc2c(=O)[nH]1)N1CCC[C@@H]2CSSC[C@@H]21 (racemic) [Compound P2, 4-chloro-2-(6-chloro-4-oxo-3,4-dihydroquinazolin-2-yl)phenyl-(cis)-hexahydro-[1,2]dithiino[4,5-b]pyridine-1(2H)-carboxylate]	not processed	resist	only processed by high levels of Grx1 and Grx2	do not release cargo inside cells under ordinary conditions	–
